Laboratory results published in patent publication US6906061B2, “Pharmaceutical agent containing Rho kinase inhibitor” (Mitsubishi Pharma Corporation, priority 1996, dated 2005).

Assays:
[1] = test system: BALB/c spleen cells stimulated with C57BL/6 spleen cells; assay: Inhibition of mouse allogenic mixed lymphocyte reaction; assay type: cell-based; details: Mus musculus, Lymphocyte, 96 h; 4 days culture, MTT; read-out: Mouse allogenic MLR inhibitory activity IC50
Experimental: Inhibition of Mouse Allogenic Mixed Lymphocyte Reaction
A mouse allogenic mixed lymphocyte reaction (hereinafter to be referred to as mouse allogenic MLR) was performed by mixed culture (equal ratio) of the spleen cell of BALB/c mice as the reaction cell and the spleen cell of C57BL/6 mice treated with mitomycin C as stimulated cell.
The reaction cells were prepared by the following method. Spleen was removed from 5-6 week old BALB/c mice and treated with RPMI1640 medium (containing kanamycin sulfate (60 μg/ml), penicillin G potassium (100 units/ml), N-2-hydroxyethylpiperazine-N′-2-ethanesulfonate (10 mM), 0.1% sodium hydrogencarbonate and L-glutamin (2 mM)) supplemented with 5% heat inactivated fetal bovine serum (FBS) to give a single cell suspension of the spleen cell. After hemolysis treatment, the suspension was adjusted to10^7 cells/ml with RPMI1640 medium containing 10^−4 M 2-mercaptoethanol and 10% FBS and used as a reaction cell suspension.
The reaction cell suspension (50 μl) prepared by the above method, stimulated cell suspension (50 μl) and the test compound (100 μl) prepared using RPMI1640 medium containing 10% FBS were added to a 96 well plate and incubated at 37° C. under 5% CO2 gas, 95% air for 4 days.
A pigment assay using 3-(4,5-dimethylthiazol-2-yl)-2,5-diphenyltetrazolium bromide (MTT) was applied for the determination of lymphocyte transformation reaction.
After the completion of culture, the supernatant (100 μl) in each well was removed, and 5 mg/ml MTT solution (20 μl) was added to each well, which was followed by incubation at 37° C. for 4 hours. Then, a 0.01 N hydrochloric acid solution (100 μl) containing 10% sodium dodecyl sulfate was added and the mixture was incubated at 37° C. overnight. The resulting purple crystals of formazan was dissolved and absorbance at 550 nm was measured using a microplate absorption meter, which was used as the index of lymphocyte transformation reaction of the mouse allogenic MLR. The inhibition of mouse allogenic MLR was evaluated by calculating the inhibition percentage by the following formula The results are shown in Table 7.

[2] = test system: Bovine Aorta Thoracia Rho Kinase; assay: Rho kinase inhibitory action (inhibition of bovine aorta thoracia Rho kinase); assay type: biochemical
Experimental: Rho Kinase Inhibitory Action (Inhibition of Bovine Aorta Thoracia Rho Kinase)
The Rho kinase was prepared from bovine aorta of thorax by partial purification as in the following. The artery was minced and homogenized with a 9-fold amount of 50 mM Tris-hydroxymethylaminomethane (Tris) (pH=7.4), 1 mM dithiothreitol, 1 mM EGTA, 1 mM EDTA, 100 μM p-amidinophenylmethylsulfonyl fluoride, 5 μM E-64, 5 μM leupeptine and 5 μM pepstatin A. The homogenate was centrifuged (10,000×g, 30 minutes) to give supernatant. The supernatant was adsorbed onto a hydroxyapatite column. The column was washed with 0.2M phosphate buffer (pH=6.8). The standard product of Rho kinase was eluted with 0.4M phosphate buffer (pH=6.8). The Rho kinase was assayed as follows.
A reaction mixture (total amount 50 μl) containing 50 mM Tris, 1 mM EDTA, 5 mM MgCl2, 50 μg/ml histone, 10 μM GTPγS, 100 μg/ml Rho, 2 μM [^32P]ATP, the Rho kinase (3 μl) prepared in the above and the test compound was reacted at 30° C. for 5 minutes. The reaction was terminated by the addition of 25% trichloroacetic acid (TCA) solution (1 ml) and the mixture was stood at 4° C. for 30 minutes. Then, the mixture was filtered through a membrane filter (HAWP type, Millipore), and the radioactivity of the filter was counted on a liquid scintillation counter. The inhibitory action of the test compound was calculated from the following formula based on the comparison of the radioactivity with the sample without the test compound (control).

[3] = test system: trachea specimen contracted with acetylcholine; assay: Effect on contraction by acetylcholine of trachea specimen removed from guinea pig; details: Cavia porcellus, acetylcholine 10^−6 M contraction, 50% relaxation vs papaverine 10^−4 M maximum, read-out: Trachea relaxing action
Experimental: Male Hartley guinea pigs (body weight 260-390 g) were anesthetized by the peritoneal administration of pentobarbital sodium (100 mg/kg) and exsanguinated, whereafter trachea was removed. The anterior cartilage of the trachea was opened and the band was cut in a 3 mm width strip to give a specimen. The specimen was hung in a Magnus bath (40 ml) filled with Krebs-Henseleit solution (NaCl 117 mM; KCl 4.7 mM; CaCl2 2.5 mM; MgSO4 1.2 mM; NaHCO3 24.8 mM; KH2PO4 1.2 mM; glucose 11.0 mM) at a load of 1 g. The Magnus bath was constantly bubbled with a mixed gas (95% O2+5% CO2 gas). The tension of the strip was measured with an isomeric transducer (TB-611T, Nippon Koden) and depicted on a recorder (Ti-102, Tokai Irika).

[4] = molecular target: T1, p160ROCK (Homo sapiens, UniProt Q13464); assay: Inhibition of p160ROCK (myc-tagged, expressed in COS cells); assay type: biochemical; details: enzyme expressed in COS cells
T1 construct: made in house; host or cells: COS cells (transient transfection, immunoprecipitated with 9E10 anti-myc antibody on protein G-Sepharose)
T1 sequence (Q13464 whole entry): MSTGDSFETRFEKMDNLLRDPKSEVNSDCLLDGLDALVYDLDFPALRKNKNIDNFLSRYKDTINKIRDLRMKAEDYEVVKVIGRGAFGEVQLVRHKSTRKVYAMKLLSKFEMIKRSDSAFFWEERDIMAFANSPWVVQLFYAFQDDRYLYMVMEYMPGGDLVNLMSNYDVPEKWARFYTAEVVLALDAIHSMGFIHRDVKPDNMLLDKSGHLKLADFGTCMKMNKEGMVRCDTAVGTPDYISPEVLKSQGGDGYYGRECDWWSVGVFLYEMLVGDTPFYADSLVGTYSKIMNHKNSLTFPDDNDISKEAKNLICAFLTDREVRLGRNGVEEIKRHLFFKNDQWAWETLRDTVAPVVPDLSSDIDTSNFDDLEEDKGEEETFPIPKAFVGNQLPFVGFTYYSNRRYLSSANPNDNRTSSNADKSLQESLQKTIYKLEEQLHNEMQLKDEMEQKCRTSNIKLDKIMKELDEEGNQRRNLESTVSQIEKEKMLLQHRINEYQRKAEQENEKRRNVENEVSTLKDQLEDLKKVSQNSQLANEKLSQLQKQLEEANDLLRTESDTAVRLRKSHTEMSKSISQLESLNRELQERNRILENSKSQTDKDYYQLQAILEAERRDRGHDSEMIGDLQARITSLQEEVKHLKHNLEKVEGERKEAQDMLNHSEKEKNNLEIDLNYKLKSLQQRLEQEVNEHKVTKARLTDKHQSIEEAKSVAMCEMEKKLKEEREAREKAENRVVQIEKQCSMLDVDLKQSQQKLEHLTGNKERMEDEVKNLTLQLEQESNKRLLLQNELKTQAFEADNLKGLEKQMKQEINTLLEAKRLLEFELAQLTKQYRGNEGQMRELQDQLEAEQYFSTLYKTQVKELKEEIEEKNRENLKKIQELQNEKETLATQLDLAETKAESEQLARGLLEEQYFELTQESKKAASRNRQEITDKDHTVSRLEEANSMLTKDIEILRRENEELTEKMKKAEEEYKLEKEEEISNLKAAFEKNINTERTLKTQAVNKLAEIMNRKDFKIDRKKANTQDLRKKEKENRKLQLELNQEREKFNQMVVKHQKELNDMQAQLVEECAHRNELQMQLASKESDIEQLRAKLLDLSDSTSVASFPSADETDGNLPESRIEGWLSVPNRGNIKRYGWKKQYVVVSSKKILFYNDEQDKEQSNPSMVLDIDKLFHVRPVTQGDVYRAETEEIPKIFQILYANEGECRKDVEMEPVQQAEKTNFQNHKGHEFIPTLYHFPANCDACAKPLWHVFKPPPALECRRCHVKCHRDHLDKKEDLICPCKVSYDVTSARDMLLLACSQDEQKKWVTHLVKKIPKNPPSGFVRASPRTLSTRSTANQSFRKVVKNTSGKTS
Experimental: (§1) Kinase assay included the following steps. That is, a reaction mixture (total amount 30 μl) containing 50 mM Hepes-NaOH (pH=7.4), 10 mM MgCl2, 5 mM MnCl2, 2 mM dithiothreitol, 0.02% Brij35, 1 μM [γ-^32P]ATP, 330 μg/ml histone, p160ROCK (2 μl) isolated by the method of Ishizaki et al. and the test compound was incubated at 30° C. for 20 minutes. The solution was mixed with a 1/3 amount of 4× Laemmli sample buffer, boiled for 5 minutes and applied to SDS-PAGE. The gel was stained with Coomassie Brilliant Blue and dried. The band of histone was cut out and assayed for radioactivity.
(§2) Rho Kinase Inhibitory Action (Inhibition of p160ROCK and ROCKII)
(§3) COS cells were seeded in a 3.5 cm dish and incubated overnight. […] After incubation for 20 hours, the cells were washed once with ice-cooled PBS, and the cells were lysed on ice for 20 minutes using a lysis buffer (20 mM Tris-HCl (pH=7.5), 1 mM EDTA, 1 mM EGTA, 5 mM MgCl2, 25 mM NaF, 10 mM β glycerophosphate, 5 mM sodium pyrophorphate, 0.2 mM phenylmethylsulfonyl fluoride, 2 mM dithiothreitol, 0.2 mM sodium vanadate, 0.05% Triton X-100, 0.1 μM calyculin A). The lysate was centrifuged at 10,000×g for 10 minutes and the supernatant was recovered. […] Then, protein G-Sepharose was added and the mixture was shaken for 2 more hours. […]

[5] = molecular target: T2, ROCKII (Mus musculus, UniProt P70336); assay: Inhibition of ROCKII (myc-tagged, expressed in COS cells); assay type: biochemical; details: enzyme expressed in COS cells; read-out: IC50 (μM) ROCK-II
T2 construct: made in house; host or cells: COS cells (transient transfection, immunoprecipitated with 9E10 anti-myc antibody on protein G-Sepharose)
T2 sequence (P70336 whole entry): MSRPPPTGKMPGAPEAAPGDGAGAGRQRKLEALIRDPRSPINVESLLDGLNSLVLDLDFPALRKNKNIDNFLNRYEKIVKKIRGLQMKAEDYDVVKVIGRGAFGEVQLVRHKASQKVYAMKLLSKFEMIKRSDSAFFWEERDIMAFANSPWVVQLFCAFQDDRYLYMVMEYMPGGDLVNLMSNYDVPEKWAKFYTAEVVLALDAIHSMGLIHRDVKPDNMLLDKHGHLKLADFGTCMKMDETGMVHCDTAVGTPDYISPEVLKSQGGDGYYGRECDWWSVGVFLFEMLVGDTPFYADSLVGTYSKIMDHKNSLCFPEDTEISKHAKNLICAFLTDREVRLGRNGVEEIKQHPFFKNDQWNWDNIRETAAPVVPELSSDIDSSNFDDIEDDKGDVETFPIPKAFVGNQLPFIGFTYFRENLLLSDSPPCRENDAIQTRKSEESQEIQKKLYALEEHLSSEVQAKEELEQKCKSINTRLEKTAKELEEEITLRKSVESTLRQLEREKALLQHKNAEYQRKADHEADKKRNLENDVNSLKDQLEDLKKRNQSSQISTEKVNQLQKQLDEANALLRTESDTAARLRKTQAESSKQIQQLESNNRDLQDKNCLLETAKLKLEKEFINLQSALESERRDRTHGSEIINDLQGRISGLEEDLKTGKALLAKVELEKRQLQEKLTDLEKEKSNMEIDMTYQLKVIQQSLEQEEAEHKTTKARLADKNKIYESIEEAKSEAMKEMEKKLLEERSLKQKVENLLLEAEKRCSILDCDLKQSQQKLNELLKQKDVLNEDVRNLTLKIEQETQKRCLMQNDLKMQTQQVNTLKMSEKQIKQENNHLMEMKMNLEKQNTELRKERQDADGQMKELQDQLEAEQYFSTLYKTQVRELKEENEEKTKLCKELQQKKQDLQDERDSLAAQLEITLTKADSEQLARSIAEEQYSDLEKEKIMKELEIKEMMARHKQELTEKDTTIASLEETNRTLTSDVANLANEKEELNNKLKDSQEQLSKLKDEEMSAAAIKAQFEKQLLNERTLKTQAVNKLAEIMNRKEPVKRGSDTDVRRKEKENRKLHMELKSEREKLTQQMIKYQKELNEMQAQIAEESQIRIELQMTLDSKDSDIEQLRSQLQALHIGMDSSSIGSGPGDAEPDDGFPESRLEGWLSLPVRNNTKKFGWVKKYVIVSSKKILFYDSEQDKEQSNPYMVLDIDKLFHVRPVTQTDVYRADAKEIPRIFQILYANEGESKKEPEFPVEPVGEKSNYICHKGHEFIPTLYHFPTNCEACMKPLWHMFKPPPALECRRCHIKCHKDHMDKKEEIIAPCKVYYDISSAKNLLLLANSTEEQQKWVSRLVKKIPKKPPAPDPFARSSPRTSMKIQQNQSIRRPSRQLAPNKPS
Experimental: as §1, §2, §3

[6] = test system: ddY mice; assay: Acute toxicity in ddY mice; assay type: in vivo; details: intraperitoneal administration at 30 mg/kg, monitored for 5 days
Text: The compound 109.2HCl and compound 143.2HCl.H2O were respectively administered intraperitoneally to ddY mice and the mice were monitored for 5 days.

[7] = molecular target: T3, Human Platelet Rho Kinase (p160ROCK) (Homo sapiens, UniProt Q13464); assay: Rho kinase inhibitory action (inhibition of human platelet Rho kinase (p160ROCK)); assay type: biochemical; details: histone substrate, 1 μM ATP
T3 construct: Human platelet p160ROCK was isolated by the method of Ishizaki et al; from tissue; host or cells: human platelets
T3 sequence (Q13464 whole entry): as the sequence (Q13464 whole entry) above
Experimental: Rho Kinase Inhibitory Action (Inhibition of Human Platelet Rho Kinase (p160ROCK))
as §1

CC(N)[C@H]1CC[C@H](C(=O)Nc2ccncc2)CC1 (single isomer, unassigned; (+)) [Compound 80.2HCl.H2O, (+)-trans-4-(1-aminoethyl)-1-(4-pyridylcarbamoyl)cyclohexane]
IC50 [1]: 9600 nM | Inhibition (%) ([2]; test compound 10 μM): 100%

CC(N)[C@H]1CC[C@H](C(=O)Nc2ccnc3[nH]ccc23)CC1 (single isomer, unassigned; (+)) [Compound 109.2HCl, (+)-trans-N-(1H-pyrrolo[2,3-b]pyridin-4-yl)-4-(1-aminoethyl)cyclohexanecarboxamide]
IC50 [3]: 43 nM | IC50 [4]: 0.095 µM | IC50 [5]: 0.048 µM | IC50 [1]: 1600 nM | Acute toxicity (death) [6]: did not cause death | Inhibition (%) ([2]; test compound 1 μM): 81% | Inhibition (%) ([2]; test compound 10 μM): 100% | IC50 [7]: 110 nM
